“And” between values parts separate entries of the source, which are not always exact repeats. Identical values can stand only once. Like-named read-outs stand apart in the source and are kept apart here.
What was measured:
[1] = molecular target: T1, recombinant Cz (cruzain) (Trypanosoma cruzi, UniProt P25779); assay: biochemical; details: for SICz: ratio between IC50 hCatL and IC50 Cz
T1 construct: Cz was expressed and purified as described in da Silva et al; made in house
Method in brief: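 Cruzain (1 nM) was preincubated 10 min with compound in 0.1 M sodium acetate pH 5.5, 1 mM DTT, 0.01% Triton X-100, then 2.5 μM Z-FR-AMC (final) was added. Fluorescence (360/460 nm) was read for 10 min at 25 °C and normalized to DMSO.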

[2] = tested on: T. cruzi CAI/72 strain; assay: Antiparasitic activity in C2C12 cells infected with T. cruzi CAI/72 (image-based assay); format: cell-based; details: Trypanosoma cruzi
[3] = molecular target: T2, Recombinant human cathepsin L (hCatL) (Homo sapiens, UniProt P07711); assay: Human cathepsin L inhibition assay (Z-FR-AMC substrate); format: biochemical
T2 construct: purchased R&D Systems 952-CY
Experimental: Compounds were screened at 10 μM. […] The experiment was performed for 30 min.
All experiments were accomplished in a 384-well black microplate, using a Synergy HTX (Biotek) plate reader at 25 °C with absorption/emission wavelengths of 360/460 nm. All assays were performed in triplicate wells and DMSO was used as a vehicle control. Enzymatic activity was measured and normalized to DMSO controls, and the inhibitor E-64 (10 μM) was used as a positive control for all assays. All experiments were performed in triplicates, with at least two independent assays (n = 6 data points). IC50 values were determined through nonlinear regression. Obtained data were treated and analyzed using GraphPad Prism 9.0 (GraphPad Software, La Jolla, California).

[4] = tested on: Cz isolated and purified from Tulahuen 2 strain epimastigotes; set-up: method as in Jasinski et al.; details: different assay conditions and enzyme origin; ref Jasinski et al.; cited from earlier work
[5] = Host cell cytotoxicity (C2C12 viability); format: cell-based, Mouse; details: mouse, C2C12 myoblast cells infected with trypomastigotes; for viability at 48 h, 10 µM: < 50% viability considered cytotoxic; for CC50 at 48 h: viability calculated at 10 μM
Method in brief: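 Mouse C2C12 myoblasts co-seeded with CAI/72 trypomastigotes (10:1 parasite:cell) on compound, 48 h at 37 °C, 5% CO2. DAPI-stained fixed cells imaged; parasites per host cell normalized to 40 μM BNZ and DMSO. EC50 and C2C12 viability from dose-response curves, three biological replicates in triplicate.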

[6] = tested on: T. cruzi CAI/72 strain; assay: Antiparasitic activity in C2C12 cells infected with T. cruzi CAI/72 (image-based assay); format: cell-based; details: Trypanosoma cruzi, read-out: Anti-Tc CAI/72 activity (%)

T1 sequence (P25779 123-337 limits assumed): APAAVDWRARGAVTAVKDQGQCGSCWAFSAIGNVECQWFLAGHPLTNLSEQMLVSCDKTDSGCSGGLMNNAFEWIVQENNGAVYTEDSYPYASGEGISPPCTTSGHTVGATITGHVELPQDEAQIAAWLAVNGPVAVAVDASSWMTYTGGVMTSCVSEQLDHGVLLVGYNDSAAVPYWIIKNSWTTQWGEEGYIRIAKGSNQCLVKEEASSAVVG
T2 sequence (P07711 114-333): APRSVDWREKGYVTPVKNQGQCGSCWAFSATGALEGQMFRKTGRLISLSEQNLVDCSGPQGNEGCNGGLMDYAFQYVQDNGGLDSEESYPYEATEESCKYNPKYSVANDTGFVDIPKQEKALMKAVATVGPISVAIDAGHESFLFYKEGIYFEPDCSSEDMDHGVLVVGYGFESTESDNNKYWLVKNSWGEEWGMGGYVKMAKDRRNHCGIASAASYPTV

| SMILES | Cz inhibition (%) ([1]; 10 µM) | IC50 ([1]; each of two biological replicates in triplicate, read-out: IC50 Cz, single biological replicate (Figure 3)) | IC50 ([1]; mean of two experiments in triplicate (n = 6) ± SEM, read-out: IC50 Cz) [nM] | SICz [1] | SICz ([1]; listed as S 1i) | inhibition at 10 µM ([1]; read-out: Cz inhibition (%), 10 µM) [%] | inhibition at 10 µM ([2]; 10 µM, C2C12 infected cells, read-out: Anti-Tc CAI/72 activity (%)) [%] | EC50 ([2]; intracellular amastigotes in C2C12 cells, 48 h, mean of three experiments in triplicate (n = 9) ± SD, read-out: EC50 Tc CAI/72) [nM] | inhibition at 10 µM ([3]; 10 µM) [%] | IC50 ([3]; each of two biological replicates in triplicate, read-out: IC50 hCatL, single biological replicate (Figure 4)) | IC50 ([3]; mean of two experiments in triplicate (n = 6) ± SEM, read-out: IC50 hCatL) [nM] | IC50 [4] [nM] | viability at 48 h, 10 µM [5] [%] | CC50 at 48 h [5] [nM] | inhibition at 3 µM [6] [%] |
| --- | --- | --- | --- | --- | --- | --- | --- | --- | --- | --- | --- | --- | --- | --- | --- |
| C/C(=N\NC(N)=S)c1cccc(Cl)c1 [Compound S1i, (E)-2-(1-(3-Chlorophenyl)ethylidene)hydrazine-1-carbothioamide] | 100.00 | 2 nM and 3 nM | 2.5 ± 0.51 | 35.76 | 36 | > 85 | 56.2 | ~10000 | 97.2 | 58 nM and 120 nM | 89.4 ± 31.4 | 29900 | > 100 | > 10000 | – |
| CN1CCN(C(=O)N[C@@H](Cc2ccccc2)C(=O)N[C@H](/C=C/S(=O)(=O)c2ccccc2)CCc2ccccc2)CC1 [Compound K777, reference compound] | – | – | – | 0.13 | – | – | – | – | – | – | – | – | > 100 | > 10000 | 61 |

Reference: paper PMC12320831, “Synthesis and Biological Evaluation of New Chalcogen Semicarbazone (S, Se) and Their Azole Derivatives against Chagas Disease” (Journal of Medicinal Chemistry, 2024)
